{"source": "patent US8124361B2", "about": "“Methods of screening for sweet taste modulators” (Givaudan SA, priority 2006, dated 2012)", "key": {"HEK293T/Gα16gust44 cells": {"tested_on": "HEK293T/Gα16gust44 cells", "assay": "Fluo-4 calcium assay, negative control cells expressing Gα16gust44 only (mock transfected)", "assay_type": "cell-based, human", "conditions": "for Neg. control (mock transfection) AVG: calcium chloride 2 mM, sucralose 0.5 mM, aspartame 0.85 mM, perillartine 50 μM, cinnamonitrile 100 μM, cyclamate 1 mM, NDHC 0.33 mM, six replicates"}, "hCaSR": {"target": "T1, hCaSR (Homo sapiens, UniProt P41180)", "T1 construct": "full length cDNAs encoding the human CaSR (commercially available from Origene Inc., USA); host or cells: HEK293T cells stably expressing Galpha16gust44", "T1 sequence (P41180 20-1078)": "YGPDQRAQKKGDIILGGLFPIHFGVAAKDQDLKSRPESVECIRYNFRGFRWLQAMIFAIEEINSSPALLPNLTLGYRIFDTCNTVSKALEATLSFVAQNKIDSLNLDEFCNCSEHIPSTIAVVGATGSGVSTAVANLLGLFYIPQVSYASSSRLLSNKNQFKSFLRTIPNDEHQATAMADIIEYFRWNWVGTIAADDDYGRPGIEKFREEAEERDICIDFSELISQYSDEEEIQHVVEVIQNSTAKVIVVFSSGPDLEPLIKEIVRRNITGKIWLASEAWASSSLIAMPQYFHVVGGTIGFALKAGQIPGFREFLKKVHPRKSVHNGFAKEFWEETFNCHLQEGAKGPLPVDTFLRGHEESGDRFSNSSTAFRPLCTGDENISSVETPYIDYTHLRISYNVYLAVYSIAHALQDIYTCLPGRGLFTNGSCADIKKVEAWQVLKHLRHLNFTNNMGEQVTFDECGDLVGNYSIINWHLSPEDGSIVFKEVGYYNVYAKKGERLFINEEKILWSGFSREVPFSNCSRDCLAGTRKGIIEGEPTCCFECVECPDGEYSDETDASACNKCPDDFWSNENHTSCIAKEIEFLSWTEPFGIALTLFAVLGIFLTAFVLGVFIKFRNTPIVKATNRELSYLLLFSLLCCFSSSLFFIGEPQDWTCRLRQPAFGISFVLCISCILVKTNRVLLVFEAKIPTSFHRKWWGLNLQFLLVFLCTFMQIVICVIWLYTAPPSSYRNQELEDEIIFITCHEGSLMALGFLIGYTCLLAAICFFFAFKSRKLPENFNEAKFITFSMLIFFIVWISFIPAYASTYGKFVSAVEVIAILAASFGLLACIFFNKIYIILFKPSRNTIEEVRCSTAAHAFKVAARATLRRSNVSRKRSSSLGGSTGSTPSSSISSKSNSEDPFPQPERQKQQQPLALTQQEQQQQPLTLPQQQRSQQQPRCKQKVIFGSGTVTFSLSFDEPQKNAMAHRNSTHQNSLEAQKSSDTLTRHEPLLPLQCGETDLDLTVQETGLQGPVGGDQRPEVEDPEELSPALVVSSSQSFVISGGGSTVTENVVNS", "assay": "Fluo-4 calcium assay in cells transfected with hCaSR", "assay_type": "cell-based", "conditions": "transient transfection; calcium chloride 2 mM, sucralose 0.5 mM, aspartame 0.85 mM, perillartine 50 μM, cinnamonitrile 100 μM, cyclamate 1 mM, NDHC 0.33 mM; six replicates"}, "[1]": {"target": "T2, transmembrane domains of TAS1R (Homo sapiens, UniProt Q7RTX0+Q8TE23, C757R)", "T2 sequence (Q8TE23 20-839)": "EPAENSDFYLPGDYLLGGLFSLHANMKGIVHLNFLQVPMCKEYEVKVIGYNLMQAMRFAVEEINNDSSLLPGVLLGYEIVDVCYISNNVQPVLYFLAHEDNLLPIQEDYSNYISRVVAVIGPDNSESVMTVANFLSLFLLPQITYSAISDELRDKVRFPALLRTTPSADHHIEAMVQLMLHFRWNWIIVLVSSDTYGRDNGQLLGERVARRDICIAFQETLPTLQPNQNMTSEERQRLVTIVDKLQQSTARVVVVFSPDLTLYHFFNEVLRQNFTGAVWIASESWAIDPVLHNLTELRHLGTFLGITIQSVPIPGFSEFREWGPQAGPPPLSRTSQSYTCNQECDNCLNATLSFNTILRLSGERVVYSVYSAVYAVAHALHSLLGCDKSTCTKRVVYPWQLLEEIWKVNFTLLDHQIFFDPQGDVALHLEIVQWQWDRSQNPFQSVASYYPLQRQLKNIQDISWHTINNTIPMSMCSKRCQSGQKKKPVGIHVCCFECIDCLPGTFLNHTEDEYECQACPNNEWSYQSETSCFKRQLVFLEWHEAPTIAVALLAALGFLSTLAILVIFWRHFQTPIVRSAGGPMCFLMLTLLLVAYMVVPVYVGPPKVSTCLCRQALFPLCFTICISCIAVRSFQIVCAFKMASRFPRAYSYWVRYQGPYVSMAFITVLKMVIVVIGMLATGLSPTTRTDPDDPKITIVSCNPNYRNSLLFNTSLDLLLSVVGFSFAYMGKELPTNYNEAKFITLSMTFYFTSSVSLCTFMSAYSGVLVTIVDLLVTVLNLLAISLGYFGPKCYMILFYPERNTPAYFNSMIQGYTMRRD", "T2 sequence (Q7RTX0 21-852 C757R)": "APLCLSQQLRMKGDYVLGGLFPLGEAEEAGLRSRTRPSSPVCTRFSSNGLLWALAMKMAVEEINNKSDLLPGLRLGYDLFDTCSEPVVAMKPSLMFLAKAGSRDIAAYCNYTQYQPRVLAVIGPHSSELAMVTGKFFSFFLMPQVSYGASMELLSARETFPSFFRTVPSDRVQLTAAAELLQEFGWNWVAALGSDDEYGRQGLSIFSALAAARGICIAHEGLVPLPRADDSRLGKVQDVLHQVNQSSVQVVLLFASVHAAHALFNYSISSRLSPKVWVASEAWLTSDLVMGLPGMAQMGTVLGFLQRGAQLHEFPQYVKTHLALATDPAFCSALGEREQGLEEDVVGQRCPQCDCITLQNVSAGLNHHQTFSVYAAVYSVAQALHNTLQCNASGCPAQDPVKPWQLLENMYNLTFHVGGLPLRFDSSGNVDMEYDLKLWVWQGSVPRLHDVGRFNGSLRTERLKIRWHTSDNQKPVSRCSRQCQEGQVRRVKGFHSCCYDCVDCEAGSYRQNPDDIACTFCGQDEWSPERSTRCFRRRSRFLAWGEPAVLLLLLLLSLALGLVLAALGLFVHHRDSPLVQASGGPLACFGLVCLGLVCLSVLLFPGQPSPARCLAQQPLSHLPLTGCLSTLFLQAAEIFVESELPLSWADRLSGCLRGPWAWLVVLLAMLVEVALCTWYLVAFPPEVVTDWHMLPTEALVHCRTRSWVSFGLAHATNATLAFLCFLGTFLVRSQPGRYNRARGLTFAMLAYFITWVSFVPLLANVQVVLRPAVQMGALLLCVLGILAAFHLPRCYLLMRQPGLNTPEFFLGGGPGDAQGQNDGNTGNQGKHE", "assay": "Identification of candidate sweetness enhancers that bind to the transmembrane domains", "assay_type": "binding", "conditions": "identified by the applicants as candidate sweetness enhancers"}, "T1R2-TMD": {"target": "T3, T1R2-TMD (Homo sapiens, UniProt Q8TE23)", "T3 sequence (Q8TE23 564-839)": "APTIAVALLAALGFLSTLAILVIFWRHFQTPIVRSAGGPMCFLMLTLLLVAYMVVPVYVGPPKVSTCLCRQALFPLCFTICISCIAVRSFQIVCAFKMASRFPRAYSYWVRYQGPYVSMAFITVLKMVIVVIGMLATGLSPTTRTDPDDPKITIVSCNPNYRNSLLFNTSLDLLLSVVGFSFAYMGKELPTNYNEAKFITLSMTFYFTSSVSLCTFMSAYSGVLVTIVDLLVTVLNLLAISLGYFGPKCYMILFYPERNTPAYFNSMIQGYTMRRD"}, "[2]": {"tested_on": "sweet sensitive panelists", "assay": "Ranking test of sweetness isointensity (R-index), sensory panel", "assay_type": "in vivo, human", "experimental": "(§1) The sensory evaluation was conducted using a ranking method. Samples at ambient temperature were randomly presented in 15 ml blind aliquots (unidentifiable by panelists). Panels consisted of 10 sweet sensitive subjects and samples were presented in 3 replications over 1 session. After tasting each sample, the mouth was rinsed thoroughly with water at ambient temperature prior to tasting the next sample. […] They were asked to rank the samples from low to high with respect to perceived sweet taste.\nas §1, with “taste. […] From ranking-style sensory tests, a matrix of responses (see table X below) is constructed such that each cell contains the number of times a given sample was ranked at a particular location.” for “taste.”\nEssentially, the R-index is a measure of difference between two samples. The R-index has a chance level of detection of 50%. […] The critical value is the statistically relevant value that the derived R-index must deviate from (i.e greater or less than) in order to be considered significant."}, "[3]": {"tested_on": "sweet sensitive panelists", "assay": "Forced choice test of sweetness versus sucrose, sensory panel", "assay_type": "in vivo, human", "conditions": "1% sucrose, comparison with 60 ppm swingle extract; highest imaginable sweetness rates as 10", "experimental": "A forced choice sensory evaluation of […] extract as a sweetener was performed as described in example 13 (see also for forced choice method, O'Mahony, 1992, J. Sens. Stud., 7:1-47), subject to the following modifications: […]"}, "[4]": {"conditions": "0.5% sucrose in 1700 ppm cyclamate vs 1700 ppm cyclamate"}, "[5]": {"conditions": "0.5% sucrose in 1700 ppm cyclamate vs 1900 ppm cyclamate"}, "[6]": {"conditions": "0.5% sucrose in 1700 ppm cyclamate vs 2100 ppm cyclamate"}, "[7]": {"conditions": "0.5% sucrose in 1700 ppm cyclamate vs 2300 ppm cyclamate"}, "[8]": {"conditions": "0.5% sucrose in 1700 ppm cyclamate vs 2500 ppm cyclamate"}, "[9]": {"conditions": "0.5% sucrose in aqueous 600 ppm p-ethoxybenzaldehyde vs 600 ppm p-ethoxybenzaldehyde"}, "[10]": {"conditions": "0.5% sucrose in aqueous 600 ppm p-ethoxybenzaldehyde vs 700 ppm p-ethoxybenzaldehyde"}}}
{"molecule": "[Ca+2].[Cl-].[Cl-]", "note": "[Calcium, calcium chloride]", "values": [{"measurement": "Neg. control (mock transfection) AVG", "setting": "HEK293T/Gα16gust44 cells", "result": 1570, "unit": "RFU"}, {"measurement": "hCaSR AVG", "setting": "hCaSR", "result": 7610, "unit": "RFU"}]}
{"molecule": "OC[C@H]1O[C@H](O[C@]2(CCl)O[C@H](CCl)[C@@H](O)[C@@H]2O)[C@H](O)[C@@H](O)[C@H]1Cl", "note": "[Sucralose, 6-dichloro-1,6-dideoxy-β-D-fructo-furanosyl 4-chloro-4-deoxy-α-D-galactopyranoside]", "values": [{"measurement": "Neg. control (mock transfection) AVG", "setting": "HEK293T/Gα16gust44 cells", "result": "−186", "unit": "RFU"}, {"measurement": "hCaSR AVG", "setting": "hCaSR", "result": 22, "unit": "RFU"}]}
{"molecule": "N#CC=Cc1ccccc1", "note": "[cinnamonitrile]", "values": [{"measurement": "Neg. control (mock transfection) AVG", "setting": "HEK293T/Gα16gust44 cells", "result": "−998", "unit": "RFU"}, {"measurement": "hCaSR AVG", "setting": "hCaSR", "result": 197, "unit": "RFU"}, {"measurement": "binding to the transmembrane domains of TAS1R", "setting": "[1]", "result": "bind to the transmembrane domains of TAS1R"}]}
{"molecule": "C=C(C)[C@@H]1CC=C(/C=N/O)CC1", "note": "[perillartine]", "values": [{"measurement": "AVERAGE fluorescence increase, T1R2-TMD/Gα16gust44", "setting": "T1R2-TMD; 50 μM perillartine", "result": 973.06, "unit": "RFU"}, {"measurement": "increase in fluorescence compared to the signal of the negative control", "setting": "T1R2-TMD; perillartine, many cell clones, vs cells expressing Gα16gust44 but not T1R2-TMD", "result": "greater than 10 times"}, {"measurement": "AVERAGE fluorescence increase, Gα16gust44 ONLY (neg. control)", "setting": "HEK293T/Gα16gust44 cells; 50 μM perillartine", "result": 73.78, "unit": "RFU"}, {"measurement": "Neg. control (mock transfection) AVG", "setting": "HEK293T/Gα16gust44 cells", "result": "−379", "unit": "RFU"}, {"measurement": "hCaSR AVG", "setting": "hCaSR", "result": 73, "unit": "RFU"}, {"measurement": "binding to the transmembrane domains of TAS1R", "setting": "[1]", "result": "bind to the transmembrane domains of TAS1R"}]}
{"molecule": "OC[C@H]1O[C@@](CO)(O[C@H]2O[C@H](CO)[C@@H](O)[C@H](O)[C@H]2O)[C@@H](O)[C@@H]1O", "note": "[sucrose, α-D-glucopyranosyl-(1→2)-β-D-fructofaranose]", "values": [{"measurement": "cyclamate equivalent in sweetness added", "setting": "[2]; 0.5% sucrose in 1700 ppm cyclamate", "result": 200, "unit": "ppm cyclamate"}, {"measurement": "R-index", "setting": "[2]; [4]", "result": 85, "unit": "%"}, {"measurement": "sucrose sample sweetness", "setting": "[2]; [4]", "result": "sweeter"}, {"measurement": "R-index", "setting": "[2]; [5]", "result": 60, "unit": "%"}, {"measurement": "sucrose sample sweetness", "setting": "[2]; [5]", "result": "isosweet"}, {"measurement": "R-index", "setting": "[2]; [6]", "result": 21, "unit": "%"}, {"measurement": "sucrose sample sweetness", "setting": "[2]; [6]", "result": "less sweet"}, {"measurement": "R-index", "setting": "[2]; [7]", "result": 7, "unit": "%"}, {"measurement": "sucrose sample sweetness", "setting": "[2]; [7]", "result": "less sweet"}, {"measurement": "R-index", "setting": "[2]; [8]", "result": 4, "unit": "%"}, {"measurement": "sucrose sample sweetness", "setting": "[2]; [8]", "result": "less sweet"}, {"measurement": "p-ethoxybenzaldehyde isointensity", "setting": "[2]; 0.5% sucrose in aqueous 600 ppm p-ethoxybenzaldehyde", "result": 700, "unit": "ppm p-ethoxybenzaldehyde"}, {"measurement": "R-index", "setting": "[2]; [9]", "result": 68, "unit": "%"}, {"measurement": "mixture sample sweetness", "setting": "[2]; [9]", "result": "sweeter"}, {"measurement": "R-index", "setting": "[2]; [10]", "result": 59, "unit": "%"}, {"measurement": "mixture sample sweetness", "setting": "[2]; [10]", "result": "isosweet"}, {"measurement": "cyclamate isointensity", "setting": "[2]; 1700 ppm cyclamate+0.5% sucrose", "result": 1900, "unit": "ppm cyclamate"}, {"measurement": "sweetness intensity rating", "setting": "[3]", "result": 0.72}]}
